Assay results reported in patent US20160235727A1, “NOVEL PYRROLIDINE DERIVED BETA 3 ADRENERGIC RECEPTOR AGONISTS” (Merck Sharp & Dohme Corp., priority 2013, published 2016).

Target: T1, human β3-AR (Homo sapiens, UniProt P13945)
T1 construct: expressed in transfected cells; host or cells: CHO (Chinese hamster ovary) cells, stably transfected
Assay: cAMP functional agonist assay (LANCE TR-FRET) in CHO cells expressing cloned human β3-AR
Assay type: cell-based
Conditions: for EC50: CHO cells stably expressing cloned human β3-adrenoceptor, cAMP release, read-out: Human β3-AR Agonism EC50; for Fold drop in potency vs. 2-chloropyridine analog: EC50 of comparative example divided by EC50 of corresponding 2-chloropyridine compound; for Human β3-AR Agonist Activity (%): percent maximum activation relative to isoproterenol
Method: The ability of compounds to activate the human β3-AR receptor was measured using a CHO cell line stably expressing the cloned human β1-, β2-, and β3-adrenoceptors (β-AR). […] To quantify the amount of cAMP released following β-AR activation, the LANCE cAMP kit (Perking Elmer), a time-resolved fluorescence resonance energy transfer immunoassay, was used. Compounds were serially diluted in DMSO and an aliquot added to either 384-well or 96-well micro titer plates in assay buffer (5 mM HEPES, 0.1% BSA in Hank's Balanced Salt Solution). […] Following 30 min incubation at room temperature, the cells were lysed by the addition of LANCE detection buffer which contained a europium-labeled cAMP tracer. Fluorescence was measured following one hour incubation at room temperature using a Perking Elmer Envision plate reader, exciting at 340 nm and measuring emission at 615 nm and 665 nm. For each assay, a cAMP standard curve was included and used to convert fluorescence readings directly to cAMP amounts. The values were then normalized to isoproterenol, a known full agonist of β-AR, which was titrated in every assay and the EC50 determined using a custom in-house data analysis package. Along with EC50, the percent maximum activation relative to isoproterenol is reported.
The cAMP production is measured using a homogenous time-resolved fluorescence resonance energy transfer immunoassay (LANCE™, Perkin Elmer) according to the manufacture's instructions. Chinese hamster ovary (CHO) cells, stably transfected with the cloned β-adrenergic receptor (β1, β2 or β3) are harvested after 3 days of subculturing. Harvesting of cells is done with Enzyme-free Dissociation Media (Specialty Media). Cells are then counted and resuspended in assay buffer (Hank's Balanced salt solution supplemented with 5 mM HEPES, […]) containing a phosphodiesterase inhibitor (IBMX, 0.6 mM). The reaction is initiated by mixing 6,000 cells in 6 μL with 6 μL Alexa Fluor labeled cAMP antibody (LANCE™ kit) which is then added to an assay well containing 12 μL of compound (diluted in assay buffer to 2× final concentration). The reaction proceeds for 30 minutes at RT and is terminated by the addition of 24 ul detection buffer (LANCE™ kit). The assay plate is then incubated for 1 h at RT and time-resolved fluorescence measured on a Perkin Elmer Envision reader or equivalent. The unknown cAMP level is determined by comparing fluorescence levels to a cAMP standard curve.
The non-selective, full agonist β-adrenergic ligand isoproterenol is used at all three receptors to determine maximal stimulation. […] Data are analyzed using Microsoft Excel and Graphpad Prism or an internally developed data analysis software package. […]

T1 sequence (P13945 whole entry): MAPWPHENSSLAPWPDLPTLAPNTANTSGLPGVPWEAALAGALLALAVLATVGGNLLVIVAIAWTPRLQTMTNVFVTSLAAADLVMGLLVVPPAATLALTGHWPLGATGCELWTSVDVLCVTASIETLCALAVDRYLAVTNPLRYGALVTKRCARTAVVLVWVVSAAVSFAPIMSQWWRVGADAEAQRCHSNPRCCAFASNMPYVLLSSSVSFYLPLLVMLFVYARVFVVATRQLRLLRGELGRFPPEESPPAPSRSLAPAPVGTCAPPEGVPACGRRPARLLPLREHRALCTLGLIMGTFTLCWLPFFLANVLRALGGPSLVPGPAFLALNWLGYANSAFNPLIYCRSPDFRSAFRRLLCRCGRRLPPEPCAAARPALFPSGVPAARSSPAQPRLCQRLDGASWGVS

| SMILES | EC50 [nM] | Fold drop in potency vs. 2-chloropyridine analog [fold] | Human β3-AR Agonist Activity (%) |
| --- | --- | --- | --- |
| COC(C)CN(C)C(=O)c1ccc(C[C@@H]2CC[C@H]([C@H](O)c3ccccc3)N2)cc1 (mixture of isomers) [Example 2-B, 4-(((2S,5R)-5-((R)-hydroxy(phenyl)methyl)pyrrolidin-2-yl)methyl)-N-(2-methoxypropyl)-N-methylbenzamide] | 168 | 1.4 | 94 |
| COCCN(C)C(=O)c1ccc(C[C@@H]2CC[C@H]([C@H](O)c3ccc(Cl)nc3)N2)cc1 [Example 1-A] | 96 | – | 100 |
| COCCN(C)C(=O)c1ccc(C[C@@H]2CC[C@H]([C@H](O)c3ccccc3)N2)cc1 [Example 1-B, 4-(((2S,5R)-5-((R)-hydroxy(phenyl)methyl)pyrrolidin-2-yl)methyl)-N-(2-methoxyethyl)-N-methylbenzamide] | 443 | 4.6 | 93 |
| COC(C)CN(C)C(=O)c1ccc(C[C@@H]2CC[C@H]([C@H](O)c3ccc(Cl)nc3)N2)cc1 (stereo partly drawn) [Example 2-A, 4-(((2S,5R)-5-((R)-(6-chloropyridin-3-yl)(hydroxy)methyl)pyrrolidin-2-yl)methyl)-N-(2-methoxypropyl)-N-methylbenzamide] | 118 | – | 86 |
| COC(CN(C)C(=O)c1ccc(C[C@@H]2CC[C@H]([C@H](O)c3ccc(Cl)nc3)N2)cc1)c1cccc(=O)[nH]1 (stereo partly drawn) [Example 3-A, 4-(((2S,5R)-5-((R)-(6-chloropyridin-3-yl)(hydroxy)methyl)pyrrolidin-2-yl)methyl)-N-(2-methoxy-2-(6-oxo-1,6-dihydropyridin-2-yl)ethyl)-N-methylbenzamide] | 204 | – | 81 |
| COC(CN(C)C(=O)c1ccc(C[C@@H]2CC[C@H]([C@H](O)c3ccccc3)N2)cc1)c1cccc(=O)[nH]1 (stereo partly drawn) [Example 3-B, 4-(((2S,5R)-5-((R)-hydroxy(phenyl)methyl)pyrrolidin-2-yl)methyl)-N-(2-methoxy-2-(6-oxo-1,6-dihydropyridin-2-yl)ethyl)-N-methylbenzamide] | 410 | 2.0 | 101 |
| Cc1cc(CN(C)C(=O)c2ccc(C[C@@H]3CC[C@H]([C@H](O)c4ccc(Cl)nc4)N3)cc2)n[nH]1 [Example 4-A, 4-(((2S,5R)-5-((R)-(6-chloropyridin-3-yl)(hydroxy)methyl)pyrrolidin-2-yl)methyl)-N-methyl-N-((5-methyl-1H-pyrazol-3-yl)methyl)benzamide] | 5 | – | 104 |
| Cc1cc(CN(C)C(=O)c2ccc(C[C@@H]3CC[C@H]([C@H](O)c4ccccc4)N3)cc2)n[nH]1 [Example 4-B, 4-(((2S,5R)-5-((R)-hydroxy(phenyl)methyl)pyrrolidin-2-yl)methyl)-N-methyl-N-((5-methyl-1H-pyrazol-3-yl)methyl)benzamide] | 14 | 2.6 | 108 |
| Cc1cc(CN(C)C(=O)c2ccc(C[C@@H]3CC[C@H]([C@H](O)c4ccc(OC(F)F)cc4)N3)cc2)n[nH]1 [Example 4-E, 4-(((2S,5R)-5-((R)-(4-(difluoromethoxy)phenyl)(hydroxy)methyl)pyrrolidin-2-yl)methyl)-N-methyl-N-((5-methyl-1H-pyrazol-3-yl)methyl)benzamide] | 90 | 16.4 | 79 |
| Cc1cc(CN(C)C(=O)c2ccc(C[C@@H]3CC[C@H]([C@H](O)c4ccc(F)cc4)N3)cc2)n[nH]1 [Example 4-F, 4-(((2S,5R)-5-((R)-(4-fluorophenyl)(hydroxy)methyl)pyrrolidin-2-yl)methyl)-N-methyl-N-((5-methyl-1H-pyrazol-3-yl)methyl)benzamide] | 19 | 3.5 | 105 |
